Experimental findings from patent US20190023658A1, “SUBSTITUTED 2-DIFLUOROMETHYL-NICOTIN(THIO)CARBOXANILIDE DERIVATIVES AND THEIR USE AS FUNGICIDES” (Bayer CropScience Aktiengesellschaft, priority 2015, published 2019) are described below.

A short description of the first data set: Log P by HPLC on reversed phase columns (EEC directive 79/831 Annex V.A8). Type of data set: physicochemical. To be noted: [a] LC-UV, acidic range, 0.1% formic acid in water and acetonitrile as eluent. Here is the method:
Measurement of Log P values was performed according to EEC directive 79/831 Annex V.A8 by HPLC (High Performance Liquid Chromatography) on reversed phase columns with the following methods: [a] Log P value is determined by measurement of LC-UV, in an acidic range, with 0.1% formic acid in water and acetonitrile as eluent (linear gradient from 10% acetonitrile to 95% acetonitrile). [b] Log P value is determined by measurement of LC-UV, in a neutral range, with 0.001 molar ammonium acetate solution in water and acetonitrile as eluent (linear gradient from 10% acetonitrile to 95% acetonitrile). Calibration was done with straight-chain alkan2-ones (with 3 to 16 carbon atoms) with known Log P values (measurement of Log P values using retention times with linear interpolation between successive alkanones). Lambda-max-values were determined using UV-spectra from 200 nm to 400 nm and the peak values of the chromatographic signals.
In the case of `Cc1ccccc1Oc1ccccc1NC(=O)c1cccnc1C(F)F` [Example I-02], the log partition coefficient (LogP) (in general, a log measure of how a compound divides between an organic and an aqueous phase) was 3.27^[a].
For the compound `O=C(Nc1ccccc1Oc1ccc(Cl)cc1)c1cccnc1C(F)F` [Example I-03], the LogP was 3.33^[a].
In the case of `O=C(Nc1ccccc1Oc1cc(F)cc(C(F)(F)F)c1)c1cccnc1C(F)F` [Example I-04], the LogP was 3.57^[a].
With `COc1cccc(Oc2ccccc2NC(=O)c2cccnc2C(F)F)c1` [Example I-05], the LogP was 2.92^[a].
Take `O=C(Nc1ccccc1Oc1ccc(C(F)(F)F)cc1)c1cccnc1C(F)F` [Example I-07]: the LogP was 3.46^[a].
With `O=C(Nc1ccccc1Oc1cccc(F)c1F)c1cccnc1C(F)F` [Example I-08], the LogP is 2.98^[a].
Take `O=C(Nc1cccc(Cl)c1Sc1ccccc1)c1cccnc1C(F)F` [Example I-09]: the LogP is 3.59^[a].
With `O=C(Nc1cccc(Cl)c1Oc1ccc(Cl)cc1)c1cccnc1C(F)F` [Example I-10], the LogP was 3.59^[a].
On the same count and under the same terms, to `O=C(Nc1ccccc1Sc1ccccc1)c1cccnc1C(F)F` [Example I-11] belongs 3.21^[a]; to `O=C(Nc1ccccc1Oc1cc(F)cc(F)c1)c1cccnc1C(F)F` [Example I-12], 3.11^[a]; to `COc1ccc(Oc2ccccc2NC(=O)c2cccnc2C(F)F)cc1` [Example I-13], 2.90^[a].
On the same count and under the same terms, to `O=C(Nc1ccccc1Sc1ccc(Cl)cc1)c1cccnc1C(F)F` [Example I-14] belongs 3.57^[a].
Still for that read-out and setting: as for `O=C(Nc1ccccc1Oc1ccccc1F)c1cccnc1C(F)F` [Example I-15], the figure is 2.88^[a]; as for `O=C(Nc1ccccc1Oc1ccc(F)c(F)c1)c1cccnc1C(F)F` [Example I-16], 3.09^[a].
For `O=C(Nc1ccccc1Oc1ccc(Cl)cc1Cl)c1cccnc1C(F)F` [Example I-17], the log partition coefficient (LogP) was 3.65^[a].
Take `O=C(Nc1ccccc1Oc1cccc(C(F)(F)F)c1)c1cccnc1C(F)F` [Example I-18]: the lipophilicity (LogP) is 3.44^[a].
For `Cc1cccc(Oc2ccccc2NC(=O)c2cccnc2C(F)F)c1` [Example I-19], the LogP is 3.23^[a].
Regarding `O=C(Nc1ccccc1Oc1ccccc1)c1cccnc1C(F)F` [Example I-20], the LogP was 2.90^[a].
In the case of `COc1ccccc1Oc1ccccc1NC(=O)c1cccnc1C(F)F` [Example I-21], the LogP is 2.88^[a].
`O=C(Nc1cccc(Cl)c1Oc1ccccc1)c1cccnc1C(F)F` [Example I-22]: the lipophilicity (LogP) was 3.15^[a].
`O=C(Nc1ccccc1S(=O)(=O)c1ccccc1)c1cccnc1C(F)F` [Example I-23]: the LogP was 2.56^[a].
Consider `O=C(Nc1cc(C(F)(F)F)ccc1Oc1ccccc1)c1cccnc1C(F)F` [Example I-24], for which the LogP was 3.63^[a].
Consider `O=C(Nc1ccccc1Oc1cc(Cl)cc(Cl)c1)c1cccnc1C(F)F` [Example I-25], for which the lipophilicity (LogP) is 3.81^[a].
The same measure, in the same setting: to `O=C(Nc1ccccc1Oc1ccccc1Cl)c1cccnc1C(F)F` [Example I-26] belongs 3.11^[a]; to `O=C(Nc1ccccc1Oc1cccc(F)c1)c1cccnc1C(F)F` [Example I-27], 2.96^[a]; to `O=C(Nc1ccccc1Oc1ccc(F)cc1)c1cccnc1C(F)F` [Example I-28], 2.96^[a].
As to `N#Cc1ccc(Oc2ccccc2NC(=O)c2cccnc2C(F)F)cc1` [Example I-29], the LogP was 2.51^[a].
Turning to `O=C(Nc1ccccc1Oc1ccc(Br)cc1)c1cccnc1C(F)F` [Example I-30], the LogP is 3.39^[a].
As for `CON=Cc1ccc(-c2ccccc2NC(=O)c2cccnc2C(F)F)cc1` [Example I-32], the log partition coefficient (LogP) was 2.86^[a].
On the same count and under the same terms, to `CON=Cc1c(F)cc(-c2cccc(F)c2NC(=O)c2cccnc2C(F)F)cc1F` [Example I-33] belongs 2.97^[a]; to `O=C(Nc1ccccc1-c1ccc(F)cc1)c1cccnc1C(F)F` [Example I-34], 2.66^[a].
As for `O=C(Nc1ccccc1-c1ccc(Cl)c(F)c1)c1cccnc1C(F)F` [Example I-35], the LogP is 3.06^[a].
As to `N#Cc1c(F)cc(-c2ccccc2NC(=O)c2cccnc2C(F)F)cc1F` [Example I-36], the lipophilicity (LogP) is 2.71^[a].
Still for that read-out and setting: to `O=C(Nc1ccc(F)cc1-c1ccc(Cl)c(Cl)c1)c1cccnc1C(F)F` [Example I-37] belongs 3.44^[a]; to `O=C(Nc1ccccc1-c1cc(F)cc(F)c1)c1cccnc1C(F)F` [Example I-38], 2.80^[a]; to `O=C(Nc1ccccc1-c1cccc(C(F)(F)F)c1)c1cccnc1C(F)F` [Example I-39], 3.15^[a].
The same measure, in the same setting: as for `O=C(Nc1ccccc1-c1ccc(Cl)cc1)c1cccnc1C(F)F` [Example I-40], the figure is 2.92^[a]; as for `CCON=Cc1ccc(-c2ccccc2NC(=O)c2cccnc2C(F)F)cc1` [Example I-41], 3.23^[a].
Regarding `O=C(Nc1ccccc1-c1ccc(F)c(F)c1)c1cccnc1C(F)F` [Example I-42], the LogP is 2.78^[a].
In the case of `O=C(Nc1ccccc1-c1ccc(C(F)(F)F)c(F)c1)c1cccnc1C(F)F` [Example I-43], the LogP is 3.25^[a].
`O=C(Nc1ccccc1-c1ccccc1C(F)(F)F)c1cccnc1C(F)F` [Example I-44] displayed a LogP of 2.99.
Regarding `O=C(Nc1ccccc1-c1ccc(F)cc1F)c1cccnc1C(F)F` [Example I-45], the LogP is 2.66^[a].
`O=C(Nc1ccc(F)cc1-c1ccc(F)cc1)c1cccnc1C(F)F` [Example I-47]: the log partition coefficient (LogP) is 2.73^[a].
For the compound `O=C(Nc1ccccc1-c1cc(F)c(F)c(F)c1)c1cccnc1C(F)F` [Example I-48], the LogP was 2.92^[a].
`CON=Cc1c(F)cc(-c2ccccc2NC(=O)c2cccnc2C(F)F)cc1F` [Example I-49]: the LogP was 3.17^[a].
For the compound `CCON=Cc1c(F)cc(-c2ccccc2NC(=O)c2cccnc2C(F)F)cc1F` [Example I-50], the lipophilicity (LogP) is 3.46^[a].
With `O=C(Nc1ccccc1-c1ccccc1Cl)c1cccnc1C(F)F` [Example I-51], the log partition coefficient (LogP) is reported as 2.74.
The same measure, in the same setting: as for `O=C(Nc1ccccc1-c1cccc(Cl)c1)c1cccnc1C(F)F` [Example I-52], the figure is 2.96^[a]; as for `O=C(Nc1ccccc1-c1cc(Cl)cc(Cl)c1)c1cccnc1C(F)F` [Example I-53], 3.48^[a]; as for `O=C(Nc1ccccc1-c1ccc(Cl)c(Cl)c1)c1cccnc1C(F)F` [Example I-54], 3.35^[a].
Same read-out and setting: as for `COC(=N)c1c(F)cc(-c2cc(F)ccc2NC(=O)c2cccnc2C(F)F)cc1F` [Example I-55], the figure is 3.16^[a]; as for `CSc1ccc(-c2ccccc2NC(=O)c2cccnc2C(F)F)cc1` [Example I-56], 2.94^[a]; as for `CCOc1c(F)cc(-c2ccccc2NC(=O)c2cccnc2C(F)F)cc1F` [Example I-57], 3.29^[a].
As for `CCCOc1c(F)cc(-c2ccccc2NC(=O)c2cccnc2C(F)F)cc1F` [Example I-58], the LogP was 3.61^[a].

The same data set, now with this note: [b] LC-UV, neutral range, 0.001 molar ammonium acetate solution in water and acetonitrile as eluent.
Compound `O=C(Nc1ccccc1-c1ccccc1C(F)(F)F)c1cccnc1C(F)F` [Example I-44] registered a LogP of 2.93.
`O=C(Nc1ccccc1-c1ccccc1Cl)c1cccnc1C(F)F` [Example I-51]: the LogP turned out to be 2.68.

The same data set, now with this note: reversed phase HPLC column; [a] LC-UV, acidic range, 0.1% formic acid in water and acetonitrile as eluent.
On to `Cc1ccc(Oc2ccccc2NC(=O)c2cccnc2C(F)F)cc1` [Example I-01, 2-(difluoromethyl)-N-[2-(4-methylphenoxy)phenyl]nicotinamide], for which the chromatographic logP (in general, lipophilicity estimated from chromatographic retention) came to 3.27.
